Measurements published in patent US20240271088A1, “METHOD FOR MAINTAINING AND AMPLIFYING HUMAN PRIMORDIAL GERM CELLS / HUMAN PRIMORDIAL GERM CELL-LIKE CELLS” (KYOTO UNIVERSITY, priority 2020, published 2024).

Columns and labels:
[1] = tested on: 585B1-868BTAG iPSC-derived PGCLCs; assay: hPGCLC maintenance and expansion culture with added Wnt signal transduction inhibitors; growth curve and enrichment score by FACS; type: cell-based, human; settings: control DMSO
From the text: FIG. 14A A drawing showing the suppressive effect of Wnt signal transduction inhibitor on PGCLC dedifferentiation. […] Growth curve of BTAG double-positive cells under each condition in 30 day culture (n=3). The average values of the three experiments were plotted and connected with a straight line. The number after the lowercase letter “c” indicates the number of days of culture.
FIG. 14B A drawing showing the suppressive effect of Wnt signal transduction inhibitor on PGCLC dedifferentiation. […] Enrichment score (n=3) under each condition at C10, C20 and C30. The average values were plotted with red diamonds. Using the DMSO-added group as a control group, a multiple comparison test was performed by Dunnet method. *:p<0.1, **:p<0.05 […]
Further detailed analysis of the FACS analysis results of 585B1-868BTAG (BLIMP1-tdTomato and AP2γ-EGFP) iPS cell-derived proliferated human PGCLC was performed. In the FACS analysis, the expression of the human cell-specific cell surface antigen TRA-1-85 in the population excluding dead cells by DRAQ7 staining was analyzed. […]
Proliferation culture was performed using 585B1-868BTAG iPSC-derived PGCLCs on day 6 of differentiation induction. […] Cells were passaged and counted by FACS every 10 days to draw a proliferation curve. In addition, an enrichment score was calculated at respective culture day numbers.

[2] = tested on: BT+AG+ hPGCLC (d6 hPGCLCs from 585B1 BTAG hiPSC); assay: hPGCLC expansion culture on m220 feeders with combinations of chemical substances and cytokines; BT+AG+ cells counted by FACS; type: cell-based, human; settings: 10 days of culture, GMEM, 15% KSR, 2.5% FBS, 100 ng/ml SCF, forskolin 10 μM, rolipram 10 μM, cyclosporin A 5 μM, LIF 10 ng/ml, EGF 50 ng/ml, bFGF 20 ng/ml
Method: FIG. 1B Exploration of conditions for expanding hPGCLC in vitro. (B) (Left) Scheme for exploration of conditions for BT^+AG^+ cell proliferation. (Right) Plot showing the number of BT^+AG^+ cells after 10 days of culture under the indicated conditions determined by FACS analysis. (Blue) Combination of chemical substances [forskolin (10 μM), rolipram (10 μM), and cyclosporin A (5 μM)] used for BT^+AG^+ cell proliferation. (Yellow) Combination of cytokines [LIF (10 ng/ml), EGF (50 ng/ml), and basic fibroblast growth factor (bFGF: 20 ng/ml)] used for BT^+AG^+ cell proliferation. About 5000 hPGCLCs were used as the starting cell population. […] Conditions for mPGCLC expansion: green. Conditions without additional chemical substance/cytokine: gray.
In order to examine the influence of cytokine and/or chemical substances on hPGCLC proliferation, hPGCLC was treated with MMC in GK15 containing 2.5% FBS and 100 ng/mL SCF, and supplemented with cytokine and/or chemical substances [10 ng/mL LIF; 50 ng/mL EGF; 20 ng/mL bFGF; 10 μM forskolin; 10 μM rolipram; 5 μM cyclosporin A (SIGMA, 30024)], and the cells were passaged every 10 days [see the section of Fluorescence activated cell sorting]. On the day of passage, about 5.0×10^3 cells were plated on 24-well plates (0.5 mL of medium containing 10 μM Y27632), and 0.5 mL of medium free of Y27632 was 0.5 mL added the next day. […]

In the case of `O=C(Nc1cccc2cccnc12)c1ccc(N2C(=O)[C@@H]3[C@H](C2=O)[C@@H]2C=C[C@H]3C2)cc1` [IWR1], the “appearance of dedifferentiated cells (enrichment score)” value ([1]; c10, c20, c30, IWR1 at various concentrations, inhibitor comparison at 2.5 μM) is reported as “significantly suppressed” and the “effect on hPGCLC proliferation (growth curve of BTAG double-positive cells)” value ([1]; various concentrations added to maintenance and expansion medium, 30 days of culture, n=3) is reported as “no effect”.

In the case of “FGF: basic fibroblast growth factor, 20 ng/ml”, the “effect on expansion of the number of BT+AG+ cells” value [2] is reported as “positive effect”.
